The values that follow are results of earlier work, collected in US8124639B2, “Bicyclic [3.1.0] heteroaryl amides as type 1 glycine transport inhibitors” (Pfizer Inc., priority 2005, dated 2012).

The test system of this data set is NMDA receptor. The conditions noted are these: effect blocked by a specific NMDA-site antagonist and a glycine-site antagonist.

With `CN(CCC(Oc1ccc(-c2ccccc2)cc1)c1ccc(F)cc1)CC(=O)O` (stereo not shown) [NFPS], the “effect on postsynaptic current driven by the NMDA receptor” value was “increased the postsynaptic current driven by the NMDA receptor”.
